Test results as given in US9107959B2, “Method for site-specific polyvalent display on polymers” (priority 2006, dated 2015).

Assay: Cyclic voltammetry (electrochemical analyses)
Format: physicochemical
Conditions: 0.5 mM in water, NaCl 50 mM
Method: Ethynylferrocene (1.05 mg, 5.0 μmol) was dissolved in 10 mL HPLC grade water. NaCl (29.22 mg, 0.5 mmol) was added to the solution as a supporting electrolyte. Similarly, solutions of 10 mL water, 6.3 mg (5.0 μmol) peptoid 13 or 4.8 mg (5.0 μmol) peptoid 14 and 29.22 mg (0.5 mmol) NaCl were prepared. The following techniques were performed identically on 0.5 mM ethynylferrocene (50 mM NaCl), 0.5 mM 13 (50 mM NaCl) or 0.5 mM 14 (50 mM NaCl). Approximately 4 mL of solution was transferred to an electrochemical cell and subjected to cyclic voltammetry (CV) experiments. Cyclic voltammetry was conducted using a CH Instruments 600A Electrochemical Analyzer and CV curves were generated using software developed by CH Instruments. Current (μA) versus Potential (V) was measured across a freshly polished CHI104 3 mm diameter glassy carbon disk working electrode (CH Instruments) with a Ag/AgCl (3 M KCl) reference electrode (CH Instruments) and a Pt wire […] (scan rate=9.0 mV s^−1).
To test the effect of triazole conjugation on ferrocene redox properties, compound 13 was purified to >96% as determined by RP-HPLC and the electrochemical behavior of ethynylferrocene and 13 were compared using cyclic voltammetry (CV). Additionally, the influence of the estradiol group on the redox potential of the neighboring ferrocene moiety was evaluated by comparing the electrochemical characteristics of 13 with its azido-functionalized precursor 14. CV experiments were carried out at room temperature using previously described methods (Casas-Solvas et al., Org. Lett. 2004, 6, 3687). CV was performed on solutions of ethynylferrocene (0.5 mM), 13 (0.5 mM) or 14 (0.5 mM) prepared in water with NaCl (50 mM) as a supporting electrolyte, using a Ag/AgCl (KCl 3 M) reference electrode, a freshly polished glassy carbon working electrode, and a Pt wire counter electrode with a scan rate of 9.0 mV s^−1. The values of the formal redox potential)(E^o) and the half-peak potential (Ep/2) of ethynylferrocene, 13 and 14 are shown in Table 1. […]

[1] = glassy carbon working electrode, Ag/AgCl reference, scan rate 9.0 mV s^-1

Ethynylferrocene
Redox behaviour in cyclic voltammograms (ferrocene/ferrocenium) (FIG. 5): reversible redox couples | Ep/2 (half-peak potential) [1]: 0.525 V | E° (formal redox potential) [1]: 0.512 V
